{"source": "patent US20090004360A1", "about": "“Taste Potentiator Compositions in Oral Delivery Systems” (CADBURY ADAMS USA LLC, priority 2007, published 2009)", "origin": "cited, not measured here", "key": {"[1]": {"assay": "not given", "remark": "listed apart in the source"}}, "note": "Peptide text beside a SMILES is read from it.", "data": [{"smiles": "COC(=O)[C@H](Cc1ccccc1)NC(=O)[C@@H](N)CC(=O)O", "note": "[aspartame, L-aspartyl-L-phenylalanine methyl ester] (HELM PEPTIDE1{D.F.[CO[*:1]]}$$$$V2.0)", "values": [{"measurement": "sweetness relative to sucrose", "setting": "recognized value, 0.05 g in 100 ml isosweet to 10 g sucrose in 100 ml", "result": 200, "unit": "times"}]}, {"smiles": "O=C(O)c1ccc(O)cc1O", "note": "[2,4-DHB, 2,4-Dihydroxybenzoic acid]", "values": [{"measurement": "effect on sweetness of a sucrose solution", "setting": "[1]; 0.2% added to a 5% sucrose solution, Canadian Patent No. 1208966", "result": "increase in sweetness"}, {"measurement": "effect on the sweetness intensity of both sucralose and aspartame", "setting": "[1]; FIGS. 1 and 2 and Tables 1 and 2 of U.S. Pat. No. 6,461,658", "result": "slightly inhibitory effect"}, {"measurement": "effect on sweetness of aspartame", "setting": "[1]; used with aspartame, WO99/15032", "result": "increase sweetness synergistically"}, {"measurement": "length of time during which sucralose sweetness is perceived", "setting": "[1]; with sucralose, U.S. Pat. No. 6,461,658", "result": "significantly reducing the length of time"}]}, {"smiles": "OCC(O)CO", "note": "[Glycerin]", "values": [{"measurement": "sweetness relative to cane sugar", "setting": "in vivo", "result": "about 60%"}]}, {"smiles": "O=C(O)c1cccc(O)c1", "note": "[Example 3-HB, 3-hydroxybenzoic acid]", "values": [{"measurement": "effect on sweetness of sucrose, aspartame and saccharin", "setting": "[1]; pH 2.0 to 5.5, European Patent No. 0132444 and U.S. Pat. No. 4,627,987", "result": "enhance sweetness"}]}]}
